Results on nine compounds are retold here after patent US7612079B2, “2,6,9-substituted purine derivatives and their use in the treatment of proliferative disorders” (Cyclacel Limited, priority 2001, dated 2009).

One test deals with CDK4/cyclin D1 (Homo sapiens, UniProt P11802). The test can be described thus: CDK4/cyclin D1 kinase assay (GST-Rb phosphorylation). Conditions: Table 2; read-out: Kinase inhibition CDK4/cyclin D1 IC50. The format is biochemical. The method, then: Assays for CDK2/cyclin E kinase, CDK1/cyclin B and CDK4/cyclin D1 may be carried out by monitoring phosphorylation of GST-Rb in an appropriate system. […] The phosphorylation reaction mixture (total volume 40 μl) consisted of 50 mM HEPES pH 7.4, 20 mM MgCl2, 5 mM EGTA, 2 mM DTT, 20 mM β-glycerophosphate, 2 mM NaF, 1 mM Na3VO4, Protease Inhibitors Cocktail (Sigma, see above), BSA 0.5 mg/ml, 1 μg purified enzyme complex, 10 μl of GST-Rb-Sepharose-beads, 100 μM ATP, 0.2 μCi ^32P-ATP. The reaction is carried out for 30 min at 30° C. at constant shaking. At the end of this period 100 μl of 50 mM HEPES, pH 7.4 and 1 mM ATP is added to each well and the total volume transferred onto GFC filtered plate. The plate is washed 5 times with 200 μl of 50 mM HEPES, pH 7.4 and 1 mM ATP. To each well was added 50 μl scintillant liquid and the radioactivity of the samples is measured on Scintilation counter (Topcount, HP). The IC50 values of different peptides were calculated using GraFit software.

A further test addresses CDK7/cyclin H (Homo sapiens, UniProt P50613). The test can be described thus: CDK7/cyclin H kinase inhibition. The format is biochemical. Conditions: Table 2.
Test [1] has as its target T1, cyclic AMP-dependent kinase (PKA) catalytic subunit (Homo sapiens, UniProt P17612).
T1 construct: purchased Calbiochem 539487
The test can be described thus: PKA kinase assay (Kemptide phosphorylation). The format is biochemical. Conditions: Table 2; read-out: Kinase inhibition PKA IC50. The method, then:
The reaction mixture (total volume 50 μl) consisted of 20 mM MOPS, pH 7.2, 25 mM β-glycerophosphate, 5 mM EGTA, 1 mM DTT, 1 mM Na3VO4, 10 mM MgCl2, 100 μM ATP, 0.2 μCi [γ-^32P]-ATP.

For a further test, the system named is A549, HT29, Saos-2. The test can be described thus: In vitro anti-proliferative activity, 72-h MTT, A549, HT29, Saos-2. The format is cell-based. The following applies: read-out: In vitro anti-proliferative activity (72-h MTT IC50), Cell lines: A549, HT29, Saos-2.
A further test addresses T2, mouse ERK-2 (Mus musculus, UniProt P63085).
T2 construct: purchased Upstate Biotechnologies
The test can be described thus: ERK-2 kinase assay (MBP phosphorylation). The format is biochemical. Conditions: Table 2; read-out: Kinase inhibition ERK2 IC50. The method, then: ERK-2 kinase activity was measured by the incorporation of radioactive phosphate into myelin basic protein (MBP), catalysed by purified mouse ERK-2 (Upstate Biotechnologies). The reaction mixture (total volume 50 μL) consisted of 20 mM MOPS, pH 7.0,25 mM β-glycerophosphate, 5 mM EGTA, 1 mM DTT, 1 mM Na3VO4, 10 mM MgCl2, 100 μM ATP, 0.2 μCi [γ-^32P]-ATP.

“And” between values parts separate entries of the source, which are not always exact repeats. Identical values can stand only once.

Sequence of CDK4/cyclin D1 (P11802 whole entry, species assumed): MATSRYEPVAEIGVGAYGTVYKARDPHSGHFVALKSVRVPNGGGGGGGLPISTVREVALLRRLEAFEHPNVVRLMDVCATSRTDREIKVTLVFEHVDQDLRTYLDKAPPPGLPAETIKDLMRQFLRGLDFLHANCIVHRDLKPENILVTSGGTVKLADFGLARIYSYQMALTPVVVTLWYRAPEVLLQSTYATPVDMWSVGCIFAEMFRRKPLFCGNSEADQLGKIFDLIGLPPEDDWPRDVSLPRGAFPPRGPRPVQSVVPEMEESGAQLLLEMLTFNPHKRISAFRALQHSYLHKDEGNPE
Sequence of CDK4/cyclin D1 (P24385 whole entry partner, species assumed): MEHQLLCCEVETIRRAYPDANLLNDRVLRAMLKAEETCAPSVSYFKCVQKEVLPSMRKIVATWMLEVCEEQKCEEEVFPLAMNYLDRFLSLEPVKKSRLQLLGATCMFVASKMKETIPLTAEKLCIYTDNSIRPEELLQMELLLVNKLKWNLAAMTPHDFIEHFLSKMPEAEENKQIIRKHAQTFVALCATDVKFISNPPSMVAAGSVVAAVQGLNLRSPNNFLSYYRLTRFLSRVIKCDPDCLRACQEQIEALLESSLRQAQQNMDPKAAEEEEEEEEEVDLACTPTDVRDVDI
T2 sequence (P63085 whole entry): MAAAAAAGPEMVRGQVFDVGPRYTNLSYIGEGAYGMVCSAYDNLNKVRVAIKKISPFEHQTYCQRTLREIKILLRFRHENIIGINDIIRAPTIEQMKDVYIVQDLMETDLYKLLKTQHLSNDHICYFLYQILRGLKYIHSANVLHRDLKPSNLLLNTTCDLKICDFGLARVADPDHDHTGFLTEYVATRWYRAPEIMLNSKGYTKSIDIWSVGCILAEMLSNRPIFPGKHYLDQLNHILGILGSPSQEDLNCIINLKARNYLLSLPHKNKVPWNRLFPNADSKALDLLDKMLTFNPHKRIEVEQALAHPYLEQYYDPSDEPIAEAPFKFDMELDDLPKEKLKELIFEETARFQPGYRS
Sequence of CDK7/cyclin H (P50613 whole entry, species assumed): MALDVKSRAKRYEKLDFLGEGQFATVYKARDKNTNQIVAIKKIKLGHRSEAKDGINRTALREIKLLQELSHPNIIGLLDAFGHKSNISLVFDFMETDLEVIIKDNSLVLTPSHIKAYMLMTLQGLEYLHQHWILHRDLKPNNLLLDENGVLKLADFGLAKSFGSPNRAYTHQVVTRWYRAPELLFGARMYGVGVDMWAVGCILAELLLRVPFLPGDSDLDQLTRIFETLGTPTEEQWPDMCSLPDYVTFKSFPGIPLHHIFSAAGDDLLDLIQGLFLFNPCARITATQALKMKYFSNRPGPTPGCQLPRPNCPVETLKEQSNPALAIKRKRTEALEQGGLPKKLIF
Sequence of CDK7/cyclin H (P51946 whole entry partner, species assumed): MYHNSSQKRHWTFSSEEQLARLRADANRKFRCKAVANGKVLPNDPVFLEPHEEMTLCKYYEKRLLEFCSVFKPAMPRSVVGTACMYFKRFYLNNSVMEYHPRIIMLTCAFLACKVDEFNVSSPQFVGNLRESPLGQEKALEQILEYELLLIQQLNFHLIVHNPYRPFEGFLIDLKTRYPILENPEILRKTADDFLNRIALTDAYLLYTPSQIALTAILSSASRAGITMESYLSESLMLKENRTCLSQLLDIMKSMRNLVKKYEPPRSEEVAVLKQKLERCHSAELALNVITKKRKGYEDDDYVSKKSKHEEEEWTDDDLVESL

Regarding `CC[C@@H](Nc1nc(NCc2ccccc2)c2ncn(C(C)C)c2n1)C(C)(C)O` [Example 15], the IC50 came to 12 µM at CDK4/cyclin D1; 3.7 µM at CDK7/cyclin H; 191 µM in test [1]; 15 µM with A549, HT29, Saos-2.

For `CCC(O)[C@H](CC)Nc1nc(NCc2ccccc2)c2ncn(C(C)C)c2n1` (stereo partly shown) [Example 10], the IC50 in test [1] was over 200 µM; with A549, HT29, Saos-2, 20 µM.

Take `CC[C@H](Nc1nc(NCc2ccccc2)c2ncn(C(C)C)c2n1)C(C)(C)O` [Example 16, (S)-3-(6-Benzylamino-9-isopropyl-9H-purin-2-ylamino)-2 methyl-pentan-2-ol]: the IC50 on CDK4/cyclin D1 was 8.5 µM; at CDK7/cyclin H it was 2 µM; in test [1] it was at least 200 µM; with A549, HT29, Saos-2, 10 µM.

As to `CC[C@@H](Nc1nc(NCc2ccccc2)c2ncn(C(C)C)c2n1)C(O)C(C)(C)C` (mixture of isomers) [Example 13, (3RS,4R)-4-(6-Benzylamino-9-isopropyl-9H-purin-2-ylamino)-2,2-dimethyl-hexan-3-ol], the IC50 is over 200 µM on CDK4/cyclin D1; 3.7 µM against CDK7/cyclin H; 87 µM in test [1]; over 200 µM at mouse ERK-2; 18 µM in the test with A549, HT29, Saos-2.

Take `CC[C@@H](Nc1nc(NCc2ccccc2)c2ncn(C(C)C)c2n1)C(O)C(C)C` (mixture of isomers) [Example 11, (3RS,4R)-4-(6-Benzylamino-9-isopropyl-9H-purin-2-ylamino)-2-methyl-hexan-3-ol]: the IC50 on CDK4/cyclin D1 is 28 µM; at CDK7/cyclin H, 4.4 µM; in test [1], 92 µM; at mouse ERK-2, over 200 µM; in the test with A549, HT29, Saos-2, 11 µM.

On to `CC[C@H](Nc1nc(NCc2ccccc2)c2ncn(C(C)C)c2n1)C(O)C(C)(C)C` (mixture of isomers) [Example 14, (3RS,4S)-4-(6-Benzylamino-9-isopropyl-9H-purin-2-ylamino)-2,2-dimethyl-hexan-3-ol], for which the IC50 at CDK4/cyclin D1 was 60 µM; at CDK7/cyclin H, 4.3 µM; in test [1] it was over 200 µM; on mouse ERK-2, over 200 µM; in the test on A549, HT29, Saos-2, 22 µM.

As for `CCC(O)[C@@H](CC)Nc1nc(NCc2ccccc2)c2ncn(C(C)C)c2n1` (mixture of isomers) [Example 9, (3RS,4R)-4-(6-Benzylamino-9-isopropyl-9H-purin-2-ylamino)-hexan-3-ol], the IC50 worked out at 34 µM at CDK4/cyclin D1; 1.2 µM against CDK7/cyclin H; 139 µM in test [1]; 103 µM on mouse ERK-2; 11 µM in the test on A549, HT29, Saos-2.

Consider `CCC(Nc1nc(NCc2ccccc2)c2ncn(C(C)C)c2n1)C(C)O` (stereo not shown) [Example 7], for which the IC50 was over 50 µM in test [1]; > 50 µM and 43 µM and 29 µM on mouse ERK-2.

`CC[C@H](Nc1nc(NCc2ccccc2)c2ncn(C(C)C)c2n1)C(O)C(C)C` (stereo partly shown) [Example 12]: the values for the IC50 (in test [1]; at mouse ERK-2) were 83 µM and 88 µM, respectively.
